Common to all, as to type: cell-based, human
Experiment [1] has as its system hES cells. As to the kind of experiment: Cardiomyocyte quantification via cytospin (MF-20 / αMHC staining). The settings on record: for cardiomyocyte yield compared to bSFS alone: L-IGF-I 5.0 ng/ml, AA 5.0 μM, FGF2 […] into bSFS. As to the method:
EBs were washed twice with PBS (without calcium and magnesium) and dissociated to single cells using trypsin (Invitrogen). […] The cell pellet was resuspended in PBS and a cell count performed. 100,000 cells were spun at 500 rpm for 5 min onto glass slides at low acceleration using a cytospin system (Shandon). Adherent cells were fixed, stained and the total cell number (DAPI staining of cell nuclei) and the number of sarcomeric alpha myosin heavy chain positive cells (αMHC, MF-20 Ab, Hybridoma Bank, Iowa; 1:200 followed by respective rabbit-anti mouse Cy3-labeled secondary Ab 1:500, Zymed) were counted in at least 3 independent fields of view at 20× magnification with at least 300 nuclei per field; fields were randomly selected in the DAPI channel (Zeiss Axiovert 200M, Zeiss) avoiding bias towards cardiomyocyte content. The percentage of cardiomyocytes compared to the total cell nuclei number was calculated.
Readouts were performed on day 13. […] The percentage of cardiomyocytes was counted via cytospin and the cardiomyocyte yield was calculated from the total cell count per well and the percentage of cardiomyocytes. Results are presented in Table 2 which provides an analysis on day 12 EBs differentiated in the presence of respective media added with substances as indicated in the table. Differentiation was performed in suspension in a low attachment 6-well format. Average numbers per well of a 6-well plate are presented.

In experiment [2] the test system is Transgenic hES cells carrying α-MHCneo. As to the kind of experiment: G418 selection of transgenic hES-derived cardiomyocytes, MF-20 staining. As to the method: Transgenic hES cells carrying α-MHCneo were differentiated in END-2 conditioned media as described in Example 8 and then selected with 200 µg/ml or 400 μg/ml G418 for various periods. Cells were dissociated by trypsin and plated onto chamber slides. Transgenic cardiomyocytes that were not selected with G418 were also plated as a control. Cells were then fixed by 2% paraformaldehyde and stained with the MF-20 antibody, which recognizes cardiac α-MHC. Cells were counterstained with haematoxylin to reveal nuclei. Cells […] for MF-20 staining in each slide preparation were counted and calculated as a percentage of total nuclei.

Experiment [3] relates to hES cells. The experiment is described as follows: Embryoid body differentiation of hES cells, visual scoring of beating EBs. The following applies: for effect on induction of cardiomyocytes: supplemented to DMEM3 (giving bSFS); for CM induction activity (number of beating areas): growth factor 10 ng/ml added to END2-CM, day 12, compared to END2-CM alone. As to the method: This procedure describes the formation of embryoid bodies (EB) from collagenase-derived hES cell cultures. After formation the EBs were then exposed to END2 conditioned medium (CM).
Enzymatically passaged hES cells grown on feeder cells were washed once with PBS^+ and treated with Collagenase IV (1 mg/ml) for 3-4 min at 37° C. The Collagenase IV solution was replaced by DMEM and the cells were mechanically dissociated with a pipette tip. Cells were then harvested using a cell scraper and the cell suspension was transferred to a 50 ml tube (Falcon). Cell clumps were collected by gravity and the supernatant was aspirated. Cells were resuspended in fresh DMEM medium aiming to uniformly disperse the cell clumps in the suspension. An equal volume of the cell suspension was then transferred to ultra low attachment plates (Costar). Usually 6-well plates were used and cells were cultured in 2 ml of medium. Alternatively, cells can be seeded into plates under conditions supporting cell adherence to induce differentiation of hES cells attached to a surface.
In suspension culture, EBs are formed in ultra low attachment plates in SF medium over night. After over night incubation SF medium was replaced by fresh SF medium or END2-CM respectively for further differentiation. Subsequent medium changes were performed every 3-4 days. Usually, cells were cultured over a period of 12-13 days before the visual analysis of the proportion of beating EBs under a microscope was performed followed by cell collection for additional readouts. Multiple beating areas on single EBs were not counted separately. Values are expressed as a percentage of contracting EBs compared to […] in a single well of a 6-well tray. Cell harvest and analysis at time points other then 12-13 days after EB formation is indicated in the respective examples and figures of this embodiment. For EB scoring and other analytical methods hES cell differentiation was performed in triplicates applying the same culture conditions (e.g. the same medium added) in 3 independent wells of a 6-well plate. An average value per well was calculated and presented.

For experiment [4], the system named is hES cells. The experiment is described as follows: Real time RT-PCR for cardiac markers (α-MHC, ANF). As to the method: RNA extraction: EBs at the end of the twelve day period were harvested. […] Trizol (Invitrogen) was added before freezing the EBs at -80° C. to ease cell lysis. Frozen samples were thawed and […]. Chloroform was added to the sample and incubated for 3 min at room temperature. The sample was centrifuged for 15 min at 13000 rpm at 4° C. and the aqueous phase collected. An equal volume of 70% ethanol was added before the sample was loaded onto an RNeasy mini column (Qiagen). The column was centrifuged for 15 sec at ≧8000 g. The rest of the purification steps were performed according to manufacturer's instructions. RNA was eluted in RNase-free water. 5 μg of the RNA sample was then treated with DNase (Invitrogen) in a volume of 50 μl. The mixture was incubated at room temperature for 30 min and heat inactivated for 10 min at 80° C. before cooling rapidly on ice. […] Samples were incubated for 1 hour at 37° C. before the reaction was terminated for 5 min at 95° C. RT-PCR was performed using 100 ng of cDNA with the following conditions: Cycle 1 (40×) denaturation at 95° C. for 10 s, annealing at 58° C. for 30 s and extension at 72° C. for 45 s. Melting curve step was included at the end with the following conditions: […] The gene primers used are α-MHC (sense primer: […] NO: 1); antisense primer: […] (sense primer: […] NO: 3); antisense primer […] NO: 4)) and β-Actin (sense primer: […] […]

In another experiment the test system is H3M11 cardiomyocytes. As to the kind of experiment: Microelectrode array recording of selected cardiomyocytes. The following applies: 10 μM isoproterenol; from 46 beats/min before addition. The source says:
H3M11, one of the transgenic hES lines carrying the mouse α-MHCneo transgene, was differentiated in END-2 conditioned media to induce cardiomyocytes and then selected with G418 for 1 week. G418-selected H3M11 cardiomyocytes were dissociated and plated on microelectrode array chips each containing 64 electrodes (Multi Channel Systems MCS GmbH, Reutlingen, Germany). Extracellular recordings were made with the MEA1060 amplifier and MC-Rack software. Sampling rate was 10 kHz. A control recording was made before addition of compounds.

Setting [5] is: insulin 0.1-10 μg/ml added to END2-CM.

As for `CC(=O)O` [AA, acetic acid], the “cardiomyocyte yield compared to bSFS alone” value in the experiment with hES cells [1] was “some increase”.

As to `CN[C@@H]1[C@@H](O)[C@@H](O[C@@H]2[C@@H](O)[C@H](O[C@H]3O[C@H]([C@@H](C)O)[C@@H](O)[C@H](O)[C@H]3N)[C@@H](N)C[C@H]2N)OC[C@]1(C)O` [G418], the Percent cardiomyocytes in experiment [2] (G418 200 μg/ml for 10 days) is 99.02%; in experiment [2] (G418 200 μg/ml for 16 days), 99.20%; in experiment [2] (G418 400 μg/ml 13 days) it was 99.53%; in experiment [2] (G418 400 μg/ml for 7 days), 99.85%. Further, the “cells positive for the cardiac marker” value in experiment [2] (two different G418 concentrations for various days) is “greater than 99%”.

`CCCCC[C@H](O)/C=C/[C@@H]1[C@H]2C/C(=C/CCCC(=O)[O-])O[C@H]2C[C@H]1O.[Na+]` [PGI2, (5Z,9α,11α,13E,15S)-6,9-Epoxy-11,15-dihydroxyprosta-5,13-dien-1-oic acid Sodium salt]: the cardiomyocyte inducing activity entry in the experiment on hES cells [3] (PGI2 0.2 and 2.0 μM in bSFS) is recorded as “increase in cardiomyocyte inducing activity to levels similar to that observed with END2-CM”. The “percentage of beating EBs” value in the experiment on hES cells [3] (PGI2 2, 20, 200, 2000 nM in DMEM3, day 12, in comparison with basic DMEM3) is given as “significant increases”. The “percentage of the overall cell population that forms cardiomyocytes” value with hES cells [1] (bSFS+PGI2, cytospin MF20) is recorded as “equivalent to that observed in END2-CM cultures”. Also, the “expression of cardiomyocyte marker genes α-MHC and ANF” value with hES cells [4] (bSFS+PGI2 compared to END-CM) is given as “equivalent, if not enhanced expression”.

As for `O=[Se]([O-])[O-].[Na+].[Na+]` [Selenium, sodium Selenite], the “effect on induction of cardiomyocytes” value in the experiment on hES cells [3] was “not inhibitory”.

Consider `CC(C)NCC(O)c1ccc(O)c(O)c1` (stereo not shown) [isoproterenol], for which, in the experiment on H3M11 cardiomyocytes, the beating frequency was 70 beats/min.

Turning to “FGF2: Basic Fibroblast Growth Factor; Invitrogen”, the “cardiomyocyte yield compared to bSFS alone” value in the experiment on hES cells [1] was “some increase”.

On to Igf2: recombinant human Igf2 (R&D), for which the “CM induction activity (number of beating areas)” value with hES cells [3] was “enhance CM induction activity”.

In the case of “Scf: recombinant human Scf, stem cell factor (CytoLab)”, the “CM induction activity (number of beating areas)” value with hES cells [3] was “enhance CM induction activity”.

For the compound “Transferrin: medium supplement, 0.0055 mg/ml Transferrin (Roche)”, in the experiment on hES cells [3], the “effect on induction of cardiomyocytes” value is listed as “not inhibitory”.

On to “insulin: Insulin (Roche) spiked into END2-CM”, for which the “cardiomyocyte formation from hESC” value with hES cells [3] (insulin 10 μg/ml added to END2-CM) is reported as “complete inhibition”; with hES cells [3] (setting [5]), “dose dependent inhibition”. For the same compound, in the experiment with hES cells [4] (setting [5]), the “relative expression of early cardiomyocyte markers (MesP1, NRx2.5, ANF, α-MHC)” value is “dose dependent decrease in expression”.

These data come from patent publication US8318489B2, “Prostacyclin directed differentiation of cardiomyocytes from human embryonic stem cells” (priority 2005, dated 2012).
